According to publication PMC12473123, “Structure–Function Insights into Quinuclidine-3-One BisQACs: Synthesis, Modulation of Bacterial Resistance, Structure–Activity Relationship, and Biological Profiling” (Pharmaceuticals, 2025):

How the values were obtained:
[1] = system: Staphylococcus aureus ATCC 25923; assay: Broth microdilution MIC; assay type: cell-based; conditions: Staphylococcus aureus, ATCC25923, read-out: Minimum Inhibitory Concentrations (MIC)
[2] = system: Staphylococcus aureus ATCC 33591 (methicillin-resistant); assay: Broth microdilution MIC; assay type: cell-based; conditions: Staphylococcus aureus, ATCC33591, read-out: Minimum Inhibitory Concentrations (MIC)
[3] = system: Staphylococcus aureus Clinical/MRSA; assay: Broth microdilution MIC; assay type: cell-based; conditions: Staphylococcus aureus, MRSA, read-out: Minimum Inhibitory Concentrations (MIC)
[4] = system: Bacillus cereus ATCC 14579; assay: Broth microdilution MIC; assay type: cell-based; conditions: ATCC14579, read-out: Minimum Inhibitory Concentrations (MIC), Bacillus cereus ATCC 14579
[5] = system: Listeria monocytogenes ATCC 7644; assay: Broth microdilution MIC; assay type: cell-based; conditions: Listeria monocytogenes, ATCC7644, read-out: Minimum Inhibitory Concentrations (MIC), Listeria monocytogenes ATCC 7644
[6] = system: Enterococcus faecalis ATCC 29212; assay: Broth microdilution MIC; assay type: cell-based; conditions: Enterococcus faecalis, ATCC29212, read-out: Minimum Inhibitory Concentrations (MIC), Enterococcus faecalis ATCC 29212
[7] = system: Escherichia coli ATCC 25922; assay: Broth microdilution MIC; assay type: cell-based; conditions: Escherichia coli, ATCC25922, read-out: Minimum Inhibitory Concentrations (MIC)
[8] = system: Salmonella enterica (food isolate); assay: Broth microdilution MIC; assay type: cell-based; conditions: read-out: Minimum Inhibitory Concentrations (MIC)
[9] = system: Pseudomonas aeruginosa ATCC 27853; assay: Broth microdilution MIC; assay type: cell-based; conditions: Pseudomonas aeruginosa, ATCC27853, read-out: Minimum Inhibitory Concentrations (MIC)
[10] = system: Listeria monocytogenes ATCC 7644; assay: Biofilm inhibition assay (crystal violet); assay type: cell-based; conditions: Listeria monocytogenes, ATCC7644, read-out: biofilm inhibition
Method: (§1) The ability of the candidate compounds to inhibit biofilm formation was evaluated by determining the minimum biofilm inhibitory concentration (MBIC) against the biofilm-forming strains Staphylococcus aureus ATCC 25923 and Listeria monocytogenes ATCC 7644. Overnight bacterial cultures were diluted in fresh, pre-warmed Mueller–Hinton broth (MHB) and incubated at 37 °C with constant shaking at 220 rpm. Once the cultures reached the exponential growth phase (OD600 = 0.3–0.5), they were standardized to a final concentration of 4 × 10^6 CFU/mL.
(§2) Aliquots (50 µL) of the standardized bacterial suspension were inoculated into 96-well microtiter plates containing the test compounds at final concentrations of 100, 50, 25, and 12.5 µg/mL. Plates were incubated at 37 °C for 24 to 48 h, depending on the bacterial strain. After incubation, the planktonic cells were carefully aspirated to preserve the integrity of the biofilm layer. Wells were gently rinsed with sterile ultrapure Milli-Q water and air-dried at 60 °C for 1 h to fix the biofilms. Biofilm formation was quantified using a crystal violet (CV) staining method. Wells were stained with 100 µL of 0.1% CV solution and incubated at room temperature for 1 h. Excess dye was removed by rinsing with sterile ultrapure Milli-Q water, followed by air-drying. Bound CV was solubilized with 100 µL of 70% ethanol and incubated for 30 min. The solubilized dye was transferred to a fresh plate, and absorbance was measured at 595 nm using a microplate reader (Bio-Tek EL808, Winooski, VT, USA). Absorbance values were directly proportional to biofilm biomass. Untreated bacterial cultures served as positive controls for biofilm formation, while sterile MHB served as the negative control.

[11] = system: HEK293 cells; assay: Cytotoxicity MTS assay; assay type: cell-based, human; conditions: Homo sapiens, HEK293, 48 h, read-out: IC50 HEK293
Method: (§3) The cytotoxic potential of the selected drug candidates was evaluated using the CellTiter 96® AQueous One Solution Cell Proliferation Assay (Promega, Madison, WI, USA), following the manufacturer’s protocol. Human cell lines RPE1 and HEK293 were cultured at 37 °C in a humidified incubator with 5% CO2. Test compounds were dissolved in the appropriate growth medium and serially diluted across a range of concentrations in 96-well microtiter plates. Each well was seeded with 5000 cells and incubated for 48 h under standard culture conditions. Following this incubation period, 20 µL of MTS reagent was added to each well, and the plates were further incubated for 3 h to allow for color development. Absorbance was measured at 490 nm using a microplate reader to determine cell viability. Cytotoxicity was quantified as the half-maximal inhibitory concentration (IC50), defined as the concentration of compound that reduced cell viability by 50%. […] IC50 values were calculated using GraFit 6.0 software by plotting compound concentration against absorbance and fitting the data to a sigmoidal dose–response curve.

[12] = system: RPE1 cells; assay: Cytotoxicity MTS assay; assay type: cell-based, human; conditions: Homo sapiens, RPE-1, 48 h, read-out: IC50 RPE1
Method: as §3

[13] = system: Listeria monocytogenes ATCC 7644; assay: Time-resolved growth kinetics; assay type: cell-based; conditions: MIC and ½ MIC
Method: (§4) The antimicrobial activity of the candidate compounds against Staphylococcus aureus ATCC 25923 and Listeria monocytogenes ATCC 7644 was further evaluated using a time-resolved growth kinetics assay in 96-well microtiter plates. Overnight bacterial cultures were diluted in fresh, pre-warmed Mueller–Hinton broth (MHB) and incubated at 37 °C with orbital shaking at 220 rpm. Upon reaching the exponential growth phase (OD600 = 0.3–0.5), cultures were standardized to a final concentration of 5 × 10^4 CFU/mL. Aliquots (50 µL) of the standardized inoculum were dispensed into wells containing either no antimicrobial agent (negative control) or the test compounds at concentrations corresponding to ½ MIC and MIC. Bacterial growth was continuously monitored over a 24 h period by measuring absorbance at 595 nm every 10 min using a Bio-Tek EL808 microplate reader (Winooski, VT, USA). Growth kinetics were assessed by comparing the optical density profiles of treated samples against the untreated control. Each experiment was performed independently twice, with all conditions tested in triplicate. Data are presented as the mean values of these replicates.

[14] = system: Staphylococcus aureus ATCC 25923; assay: Biofilm inhibition assay (crystal violet); assay type: cell-based
Method: as §1
as §2, with “Plates” for “Aliquots (50 µL) of the standardized bacterial suspension were inoculated into 96-well microtiter plates containing the test compounds at final concentrations of 100, 50, 25, and 12.5 µg/mL. Plates”

[15] = system: Staphylococcus aureus ATCC 25923; assay: Time-kill kinetics assay; assay type: cell-based
Method: To assess the temporal dynamics of bacterial viability upon exposure to the test compounds, a time-kill kinetics assay was performed using the Gram-positive reference strain Staphylococcus aureus ATCC 25923. An overnight culture of the strain was subcultured into fresh, pre-warmed Mueller–Hinton broth (MHB) and incubated under aerobic conditions at 37 °C with agitation (220 rpm) until reaching the early exponential growth phase. The bacterial suspension was then standardized to an initial concentration of approximately 5 × 10^5 CFU/mL. […] Wells containing untreated bacterial cultures served as growth controls. Immediately after mixing, a 10 µL sample from each well was withdrawn, diluted in 990 µL of MHB, and serially diluted tenfold up to 10^−6. From each dilution, 20 µL was plated on MHB agar using a sterile loop to determine the initial bacterial count (time zero). The treated plates were incubated at 37 °C, and additional samples were collected at predetermined time points (2, 4, 6, 8, 12, and 24 h) following the same dilution and plating protocol. After 24 h of incubation at 37 °C, colonies were counted, and viable bacterial counts were expressed as log10 CFU/mL for each time point. Bactericidal activity was evaluated by plotting the log10 CFU/mL over time, providing a dynamic profile of the compound’s killing kinetics.

[16] = system: Staphylococcus aureus ATCC 25923; assay: Time-resolved growth kinetics; assay type: cell-based; conditions: subinhibitory concentrations, relative to 2(QC16)3 and 2(QC16)6
Method: as §4

| Compound | MIC [1] | MIC [2] | MIC [3] | MIC [4] | MIC [5] | MIC [6] | MIC [7] | MIC [8] | MIC [9] | IC50 [11] | IC50 [12] | other results |
| --- | --- | --- | --- | --- | --- | --- | --- | --- | --- | --- | --- | --- |
| CCCCCCCCCCCCCCCCNC1C[N+]2(CCCC[N+]34CCC(CC3)C(NCCCCCCCCCCCCCCCC)C4)CCC1CC2 (racemic) [2(QC16)4, (±)-1,1′-(Butane-1,4-diyl) bis(3-(hexadecylamino)quinuclidinium) dibromide] | 75 µM | 9 µM | 75 µM | > 75 µM | 9 µM | 38 µM | 19 µM | 75 µM | > 75 µM | 25 µM | 34 µM | inhibition at 6.25 µg/mL [10]: > 50%; inhibition at 12.5 µg/mL [10]: > 70%; inhibition at 25 µg/mL [10]: > 90%; inhibition at 50 µg/mL [10]: > 90%; inhibition at 100 µg/mL [10]: 92%; effect on bacterial growth [13]: pronounced inhibitory effect |
| CCCCCCCCCCCCCCNC1C[N+]2(CCCCCC[N+]34CCC(CC3)C(NCCCCCCCCCCCCCC)C4)CCC1CC2 (racemic) [2(QC14)6, (±)-1,1′-(Hexane-1,6-diyl) bis(3-(tetradecylamino)quinuclidinium) dibromide] | 38 µM | 19 µM | 75 µM | 75 µM | 19 µM | 38 µM | 19 µM | 75 µM | > 75 µM | 42 µM | 61 µM | biofilm inhibition ([14]; S. aureus ATCC 25923, 6.25 µg/mL): 13%; biofilm inhibition ([14]; S. aureus ATCC 25923, 12.5 µg/mL): 15%; biofilm inhibition ([14]; S. aureus ATCC 25923, 25 µg/mL): 34%; biofilm inhibition ([14]; S. aureus ATCC 25923, 50 µg/mL): remained effective; biofilm inhibition ([14]; S. aureus ATCC 25923, 100 µg/mL): > 90%; time to rapid bactericidal activity ([15]; S. aureus ATCC 25923): ≤ 3 h; time to complete killing ([15]; S. aureus ATCC 25923, 2 × MIC): 2 h; growth curve slope in exponential phase [16]: shallower growth curve slope |
